Test results: article PMC2263054, “Functional evolution of the vitamin D and pregnane X receptors” (BMC Evolutionary Biology, 2007)
Where a name gives a salt, the structure may show the parent alone. Read-outs that look alike come from different tables or passages of the source.

Experiments:
Assay type in all cases: cell-based
[1] = molecular target: T1, Xenopus laevis VDR (Xenopus laevis, UniProt O13124); test: luciferase reporter transactivation assay in HepG2-NTCP cells, GAL4/xlVDR LBD chimera with tk-UAS-Luc; conditions: screening for activators, at least three concentrations of each drug
T1 sequence (O13124 90-422): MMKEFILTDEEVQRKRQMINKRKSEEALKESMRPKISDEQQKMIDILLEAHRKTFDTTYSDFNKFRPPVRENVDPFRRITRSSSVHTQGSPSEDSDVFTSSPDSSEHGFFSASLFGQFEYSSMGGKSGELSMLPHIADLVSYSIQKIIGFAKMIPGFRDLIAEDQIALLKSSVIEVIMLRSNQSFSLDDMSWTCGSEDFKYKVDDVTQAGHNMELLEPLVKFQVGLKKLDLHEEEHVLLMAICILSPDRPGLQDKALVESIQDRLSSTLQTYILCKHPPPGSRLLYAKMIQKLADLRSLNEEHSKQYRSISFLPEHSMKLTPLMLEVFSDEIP

[2] = molecular target: T2, Zebrafish VDR (Danio rerio, UniProt Q9PTN2); test: luciferase reporter transactivation assay in HepG2-NTCP cells, GAL4/zfVDR LBD chimera with tk-UAS-Luc; conditions: screening for activators, at least three concentrations of each drug
T2 sequence (Q9PTN2 121-453): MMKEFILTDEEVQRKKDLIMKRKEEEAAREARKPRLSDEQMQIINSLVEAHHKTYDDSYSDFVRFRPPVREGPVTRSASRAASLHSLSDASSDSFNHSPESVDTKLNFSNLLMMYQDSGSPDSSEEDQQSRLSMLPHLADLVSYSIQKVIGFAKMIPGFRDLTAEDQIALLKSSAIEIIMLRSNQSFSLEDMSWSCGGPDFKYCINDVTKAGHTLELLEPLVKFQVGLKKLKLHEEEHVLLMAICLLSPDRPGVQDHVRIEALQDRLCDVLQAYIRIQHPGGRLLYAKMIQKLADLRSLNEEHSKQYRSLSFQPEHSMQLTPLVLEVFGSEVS

[3] = molecular target: T3, Sea lamprey VDR (Petromyzon marinus, UniProt Q7ZZY9)
T3 sequence (Q7ZZY9 92-406): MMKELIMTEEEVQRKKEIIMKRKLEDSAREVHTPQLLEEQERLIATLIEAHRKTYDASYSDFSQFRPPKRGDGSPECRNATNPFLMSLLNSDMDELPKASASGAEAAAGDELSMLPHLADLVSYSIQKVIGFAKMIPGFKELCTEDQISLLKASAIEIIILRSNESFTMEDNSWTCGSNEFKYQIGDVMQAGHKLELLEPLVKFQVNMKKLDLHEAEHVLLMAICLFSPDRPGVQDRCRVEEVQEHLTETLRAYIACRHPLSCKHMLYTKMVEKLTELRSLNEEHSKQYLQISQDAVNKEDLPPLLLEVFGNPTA

[4] = screening for activators, at least three concentrations of each drug

C[C@H](CCC(=O)O)[C@H]1CC[C@H]2[C@@H]3C[C@H](O)[C@@H]4C[C@H](O)CC[C@]4(C)[C@H]3CC[C@]12C [5b-Cholanic acid-3a,6a-diol]
Effect on Xenopus laevis VDR [1]: No effect | Effect on zebrafish VDR [2]: No effect | Effect on sea lamprey VDR [3]: No effect

C[C@H](CCC(=O)O)[C@H]1CC[C@H]2[C@@H]3C[C@@H](O)[C@@H]4C[C@H](O)CC[C@]4(C)[C@H]3CC[C@]12C [5b-Cholanic acid-3a,6b-diol]
Effect on Xenopus laevis VDR [1]: No effect | Effect on zebrafish VDR [2]: No effect | Effect on sea lamprey VDR [3]: No effect

CC(=O)[C@H]1CC[C@H]2[C@@H]3CC[C@@H]4CC(=O)CC[C@]4(C)[C@H]3CC[C@]12C [5b-Pregnan-3,20-dione]
Effect on Xenopus laevis VDR [1]: No effect | Effect on zebrafish VDR [2]: No effect | Effect on sea lamprey VDR [3, 4]: No effect

C[C@H](O)[C@H]1CC[C@H]2[C@@H]3CC[C@@H]4C[C@H](O)CC[C@]4(C)[C@H]3CC[C@]12C [5b-Pregnan-3a,20a-diol]
Effect on Xenopus laevis VDR [1]: No effect | Effect on zebrafish VDR [2]: No effect | Effect on sea lamprey VDR [3, 4]: No effect

C[C@@H](O)[C@H]1CC[C@H]2[C@@H]3CC[C@@H]4C[C@H](O)CC[C@]4(C)[C@H]3CC[C@]12C [5b-Pregnan-3a,20b,diol]
Effect on Xenopus laevis VDR [1]: No effect | Effect on zebrafish VDR [2]: No effect | Effect on sea lamprey VDR [3, 4]: No effect

CC(=O)[C@H]1CC[C@H]2[C@@H]3CC[C@@H]4C[C@H](O)CC[C@]4(C)[C@H]3CC[C@]12C [5b-Pregnan-3a-ol-20-one]
Effect on Xenopus laevis VDR [1]: No effect | Effect on zebrafish VDR [2]: No effect | Effect on sea lamprey VDR [3, 4]: No effect

CC(C)CCC[C@@H](C)[C@H]1CC[C@H]2[C@@H]3CC[C@@H]4C[C@H](OS(=O)(=O)O)CC[C@]4(C)[C@H]3CC[C@]12C [5b-cholestan-3a-ol sulfate]
Effect on Xenopus laevis VDR [1]: No effect | Effect on zebrafish VDR [2]: No effect | Effect on sea lamprey VDR [3, 4]: No effect

CC(=O)[C@H]1CC[C@H]2[C@@H]3CC[C@@H]4C[C@H](OS(=O)(=O)O)CC[C@]4(C)[C@H]3CC[C@]12C [5b-pregnan-3a-ol-20-one sulfate]
Effect on Xenopus laevis VDR [1]: No effect | Effect on zebrafish VDR [2]: No effect | Effect on sea lamprey VDR [3, 4]: No effect

C[C@]12CC[C@H]3[C@@H](C[C@H](F)C4=CC(=O)CC[C@@]43C)[C@@H]1CC[C@@H]2O [6a-Fluorotestosterone]
Effect on Xenopus laevis VDR [1]: No effect | Effect on zebrafish VDR [2]: No effect | Effect on sea lamprey VDR [3, 4]: No effect

C[C@H](CCC(=O)O)[C@H]1CC[C@H]2[C@@H]3C(=O)C[C@@H]4C[C@H](O)CC[C@]4(C)[C@H]3CC(=O)[C@]12C [7,12-Diketolithocholic acid]
Effect on Xenopus laevis VDR [1]: No effect | Effect on zebrafish VDR [2]: No effect | Effect on sea lamprey VDR [3, 4]: No effect

C[C@H](CCC(=O)O)[C@H]1CC[C@H]2[C@@H]3C(=O)C[C@@H]4C[C@H](O)CC[C@]4(C)[C@H]3C[C@H](O)[C@]12C [7-Ketodeoxycholic acid]
Effect on Xenopus laevis VDR [1]: No effect | Effect on zebrafish VDR [2]: No effect | Effect on sea lamprey VDR [3, 4]: No effect

C[C@H](CCC(=O)O)[C@H]1CC[C@H]2[C@@H]3C(=O)C[C@@H]4C[C@H](O)CC[C@]4(C)[C@H]3CC[C@]12C [7-Ketolithocholic acid]
Effect on Xenopus laevis VDR [1]: No effect | Effect on zebrafish VDR [2]: No effect | Effect on sea lamprey VDR [3, 4]: No effect

CC1=C(/C=C/C(C)=C\C=C\C(C)=C\C(=O)O)C(C)(C)CCC1 [9-cis Retinoic acid]
Effect on Xenopus laevis VDR [1]: No effect | Effect on zebrafish VDR [2]: No effect | Effect on sea lamprey VDR [3, 4]: No effect

C[C@H](CCC(=O)O)[C@H]1CC[C@H]2[C@@H]3CC[C@@H]4C[C@H](O)CC[C@]4(C)[C@H]3CC(=O)[C@]12C [12-Ketolithocholic acid]
Effect on Xenopus laevis VDR [1]: No effect | Effect on zebrafish VDR [2]: No effect | Effect on sea lamprey VDR [3, 4]: No effect

CCCCC[C@H](O)/C=C/C=C\CCCCCCCC(=O)O [13(S)-Hydroxy-9Z,11E-octadecadienoic acid]
Effect on Xenopus laevis VDR [1]: No effect | Effect on zebrafish VDR [2]: No effect | Effect on sea lamprey VDR [3, 4]: No effect

CC1=C(/C=C/C(C)=C/C=C/C(C)=C\C(=O)O)C(C)(C)CCC1 [13-cis Retinoic acid]
Effect on Xenopus laevis VDR [1]: No effect | Effect on zebrafish VDR [2]: No effect | Effect on sea lamprey VDR [3, 4]: No effect

CC1=C(/C=C/C(C)=C/C=C/C(C)=C\CO)C(C)(C)CCC1 [13-cis-Retinol]
Effect on Xenopus laevis VDR [1]: No effect | Effect on zebrafish VDR [2]: No effect | Effect on sea lamprey VDR [3, 4]: No effect

CCCCC/C=C/C=C1/C(=O)C=C[C@@H]1C/C=C\CCCC(=O)O [15-Deoxy-D12,14-prostaglandin J2]
Effect on Xenopus laevis VDR [1]: No effect | Effect on zebrafish VDR [2]: No effect | Effect on sea lamprey VDR [3, 4]: No effect

C[C@]12CCC(=O)C[C@@H]1CC[C@@H]1[C@@H]2CC[C@]2(C)C=CC[C@@H]12 [16,(5a)-Androsten-3-one]
Effect on Xenopus laevis VDR [1]: No effect | Effect on zebrafish VDR [2]: No effect | Effect on sea lamprey VDR [3, 4]: No effect

C[C@]12CC[C@H](O)C[C@@H]1CC[C@@H]1[C@@H]2CC[C@]2(C)C=CC[C@@H]12 [16,(5a)-Androsten-3b-ol]
Effect on Xenopus laevis VDR [1]: No effect | Effect on zebrafish VDR [2]: No effect | Effect on sea lamprey VDR [3, 4]: No effect

C[C@]12CC[C@@H]3c4ccc(O)cc4CC[C@H]3[C@@H]1C[C@@H](O)C2=O [16a-Hydroxyestrone]
Effect on Xenopus laevis VDR [1]: No effect | Effect on zebrafish VDR [2]: No effect | Effect on sea lamprey VDR [3, 4]: No effect

CC(=O)[C@@]1(O)CC[C@H]2[C@@H]3CC=C4C[C@@H](O)CC[C@]4(C)[C@H]3CC[C@@]21C [17-Hydroxypregnenolone]
Effect on Xenopus laevis VDR [1]: No effect | Effect on zebrafish VDR [2]: No effect | Effect on sea lamprey VDR [3, 4]: No effect

C[C@]12CC[C@@H]3c4ccc(O)cc4CC[C@H]3[C@@H]1CC[C@@H]2O [17b-Estradiol, 17β-estradiol]
Effect on Xenopus laevis VDR [1]: No effect | Effect on Xenopus laevis VDR ([1]; listed as 17β-estradiol): None of these three VDRs were activated | Effect on zebrafish VDR [2]: No effect | Effect on zebrafish VDR ([2]; listed as 17β-estradiol): None of these three VDRs were activated | Effect on sea lamprey VDR [3, 4]: No effect | Effect on sea lamprey VDR ([3]; screening for activators, at least three concentrations of each drug, listed as 17β-estradiol): None of these three VDRs were activated

C[C@H](CC(=O)O)[C@H]1CC[C@H]2[C@@H]3CC[C@@H]4C[C@H](O)CC[C@]4(C)[C@H]3C[C@H](O)[C@]12C [23-Nordeoxycholic acid]
Effect on Xenopus laevis VDR [1]: No effect | Effect on zebrafish VDR [2]: No effect | Effect on sea lamprey VDR [3, 4]: No effect

C[C@H](CC[C@@H]1OC1(C)C)[C@H]1CC[C@H]2[C@@H]3CC=C4C[C@@H](O)CC[C@]4(C)[C@H]3CC[C@]12C [24(S)-,25-Epoxycholesterol]
Effect on Xenopus laevis VDR [1]: No effect | Effect on zebrafish VDR [2]: No effect | Effect on sea lamprey VDR [3, 4]: No effect

CC(C)[C@@H](O)CC[C@@H](C)[C@H]1CC[C@H]2[C@@H]3CC=C4C[C@@H](O)CC[C@]4(C)[C@H]3CC[C@]12C [24(S)-Hydroxycholesterol]
Effect on Xenopus laevis VDR [1]: No effect | Effect on zebrafish VDR [2]: No effect | Effect on sea lamprey VDR [3, 4]: No effect

CC(=O)N[C@@H](CSC/C=C(\C)CC/C=C(\C)CCC=C(C)C)C(=O)O [Acetyl-farnesyl-cysteine]
Effect on Xenopus laevis VDR [1]: No effect | Effect on zebrafish VDR [2]: No effect | Effect on sea lamprey VDR [3, 4]: No effect

CC(=O)N[C@@H](CSC/C=C(\C)CCC=C(C)C)C(=O)O [Acetyl-geranyl-cysteine]
Effect on Xenopus laevis VDR [1]: No effect | Effect on zebrafish VDR [2]: No effect | Effect on sea lamprey VDR [3, 4]: No effect

CC(=O)N[C@@H](CSC/C=C(\C)CC/C=C(\C)CC/C=C(\C)CCC=C(C)C)C(=O)O [Acetyl-geranylgeranyl-cysteine]
Effect on Xenopus laevis VDR [1]: No effect | Effect on zebrafish VDR [2]: No effect | Effect on sea lamprey VDR [3, 4]: No effect

COc1cc(C)c(/C=C/C(C)=C/C=C/C(C)=C/C(=O)O)c(C)c1C [Aciretin]
Effect on Xenopus laevis VDR [1]: No effect | Effect on zebrafish VDR [2]: No effect | Effect on sea lamprey VDR [3, 4]: No effect

C[C@]12CCC(=O)C=C1CC[C@@H]1[C@@H]2[C@@H](O)C[C@]2(C=O)[C@@H](C(=O)CO)CC[C@@H]12 [Aldosterone]
Effect on Xenopus laevis VDR [1]: No effect | Effect on zebrafish VDR [2]: No effect | Effect on sea lamprey VDR [3, 4]: No effect
